32 molecules from US5872210A (priority 1995, dated 1999) can be followed below.

Where a SMILES comes first, the peptide text is derived from it. Where no end group is shown, it is not given here.

The first series addresses T1, HIV-1 protease (Human immunodeficiency virus type 1 group M subtype B, UniProt P04585). Description: biochemical.
Details: not given
Here is the method: HIV-1 protease was obtained and its active site concentration was determined at 25° C. Purified enzyme was stored as a 5-8 μM stock solution in 50 mM NaOAc (pH 5.0), 1 mM DTT, 1 mM EDTA, 0.05% reduced Triton X-100 at -80° C. Porcine pepsin was prepared as 1-2 mg/ml in 50 mM formic acid (pH 3.0). The peptide concentrations were adjusted for their protein content.
HIV-1 protease activity was measured at 25° C. using substrate I (Lys-Ala-Arg-Val-Nle-Phe (NO2) -Glu-Ala-Nle-NH2 wherein Nle is norleucine and Phe (NO2) is 4-nitrophenylalamine). In a typical assay, 2.5 μl of enzyme was added to 97.5 μl of buffer and 2.5 mM DTT in the presence or absence of varying concentrations of inhibitor. The reaction was initiated by the addition of 10 μl of a 4 mM solution of substrate I in water and monitored by following the decrease in absorption at […] in a 100 μl spectrophotometric cell. Pepsin was assayed using substrate II (Phe-Gly-His-Phe(NO2)-Phe-Ala-PheOCH3). […] Concentrations of substrate solutions were determined spectrophotometrically at […].
The enzyme was assayed in the presence of the inhibitor in 50 mM sodium formate at pH 4.25 and 2.5 mM DTT. […] Peptides 12a and 12b were assayed at pH 4.4 and contained 0.083% and 0.02% DMSO, respectively.
For the molecule `N[C@@H](CC(=O)O)C(=O)N[C@@H](CC(=O)O)C(=O)O` [Peptide 13, Asp--Asp] (H-Asp-Asp-OH), the Ki was 970 ± 140 µM. Still for that read-out and setting: with “FLREDLAF [Peptide 1, Phe--Leu--Arg--Glu--Asp--Leu--Ala--Phe]” the figure was 98 ± 10 µM. `N[C@@H](CCC(=O)O)C(=O)O` [Peptide 16, Glutamic acid, reference compound]: the Ki is over 50000 µM. Same read-out and setting: with `N[C@@H](CC(=O)O)C(=O)O` [Peptide 17, Aspartic acid, reference compound] the figure was over 50000 µM.

Still in this series, the particulars now being: 50 mM sodium formate pH 4.25, 2.5 mM DTT, substrate I 390 μM, 25° C.; peptides 1, 2, 4 from apparent Km vs [I], others from 1/V vs [I]; read-out: Ki.
As for Glu--Lys--Phe (EKF) [Peptide 11], the Ki is 2010 ± 360 µM.

The same series, now with this note: Ki, 50 mM sodium formate pH 4.25, 2.5 mM DTT, substrate I 390 μM, 25° C.; peptides 1, 2, 4 from apparent Km vs [I], others from 1/V vs [I].
On to `CC(C)C[C@H](NC(=O)[C@H](CCC(=O)O)NC(=O)[C@@H](N)CC(=O)O)C(=O)O` [Peptide 7, Asp--Glu--Leu] (H-Asp-Glu-Leu-OH), for which the Ki turned out to be 230 ± 20 µM. Same read-out and setting: with “FLRQNLAF [Peptide 18, Phe--Leu--Arg--Gln--Asn--Leu--Ala--Phe]” the figure was 2000 µM; with `CC(C)C[C@H](NC(=O)[C@H](CCC(=O)O)NC(=O)[C@@H](N)CCC(=O)O)C(=O)O` [Peptide 8, Glu--Glu--Leu] (H-Glu-Glu-Leu-OH), 310 ± 25 µM. Still for that read-out and setting: with `CC(C)C[C@H](NC(=O)[C@H](CC(=O)O)NC(=O)[C@@H](N)CC(=O)O)C(=O)O` [Peptide 9, Asp--Asp--Leu] (H-Asp-Asp-Leu-OH) the figure was 140 ± 6 µM; with “GEDLAF [Peptide 2, Gly--Glu--Asp--Leu--Ala--Phe]”, 64 ± 13 µM. As for `NC(=O)CC[C@H](NC(=O)[C@@H](N)CC(=O)O)C(=O)O` [Peptide 15, Asp--Gln] (H-Asp-Gln-OH), the Ki is over 1000 µM. With `N=C(N)NCCC[C@H](N)C(=O)N[C@@H](CCC(=O)O)C(=O)N[C@@H](CC(=O)O)C(=O)O` [Peptide 5, Arg--Glu--Asp] (H-Arg-Glu-Asp-OH), the Ki is 3360 ± 400 µM. Same read-out and setting: in the case of `N[C@@H](CC(=O)O)C(=O)N[C@@H](CCC(=O)O)C(=O)O` [Peptide 14, Asp--Glu] (H-Asp-Glu-OH) it was 5400 ± 380 µM; in that of `CC(C)C[C@H](NC(=O)[C@@H](N)CC(=O)O)C(=O)N[C@@H](C)C(=O)N[C@@H](Cc1ccccc1)C(=O)O` [Peptide 6, Asp--Leu--Ala--Phe] (H-DLAF-OH), 270 ± 25 µM. Same read-out and setting: in the case of `CC(C)C[C@H](NC(=O)[C@H](CC(=O)O)NC(=O)[C@@H](N)CCC(=O)O)C(=O)N[C@@H](C)C(=O)O` [Peptide 3, Glu--Asp--Leu--Ala] (H-EDLA-OH) it was 160 ± 20 µM. In the case of `CC(C)C[C@H](NC(=O)[C@H](CC(N)=O)NC(=O)[C@@H](N)CCC(=O)O)C(=O)O` [Peptide 10, Glu--Asn--Leu] (H-Glu-Asn-Leu-OH), the Ki was 3070 ± 210 µM. Same read-out and setting: with `N[C@@H](CCC(=O)O)C(=O)N[C@@H](CC(=O)O)C(=O)N[C@@H](Cc1ccccc1)C(=O)O` [Peptide 12, Glu--Asp--Phe] (H-Glu-Asp-Phe-OH) the figure was 25 ± 3 µM.

Staying with this series, now noted: Ki, NaCl 0 M; 50 mM sodium formate pH 4.25, 2.5 mM DTT; 1/V vs [I].
With `CC(C)C[C@H](NC(=O)[C@@H](N)CC(=O)O)C(=O)N[C@@H](C)C(=O)N[C@@H](Cc1ccccc1)C(=O)O` [Peptide 6, Asp--Leu--Ala--Phe] (H-DLAF-OH), the Ki was determined as 270 ± 25 µM. The molecule `N[C@@H](CCC(=O)O)C(=O)N[C@@H](CC(=O)O)C(=O)N[C@@H](Cc1ccccc1)C(=O)O` [Peptide 12, Glu--Asp--Phe] (H-Glu-Asp-Phe-OH) had a Ki of 15 ± 2 µM.

The series is the same for the next values; noted with them: Ki, NaCl 1 M; 50 mM sodium formate pH 4.25, 2.5 mM DTT; 1/V vs [I].
Molecule `CC(C)C[C@H](NC(=O)[C@@H](N)CC(=O)O)C(=O)N[C@@H](C)C(=O)N[C@@H](Cc1ccccc1)C(=O)O` [Peptide 6, Asp--Leu--Ala--Phe] (H-DLAF-OH) registered a Ki of 3260 ± 390 µM.

For `N[C@@H](CCC(=O)O)C(=O)N[C@@H](CC(=O)O)C(=O)N[C@@H](Cc1ccccc1)C(=O)O` [Peptide 12, Glu--Asp--Phe] (H-Glu-Asp-Phe-OH), the Ki worked out at 410 ± 25 µM.

Still in this series, the particulars now being: Ki, pH 4.4; 0.083% (12a) and 0.02% (12b) DMSO; 1/V vs [I].
For `N[C@@H](Cc1ccccc1)C(=O)N[C@@H](CC(=O)O)C(=O)N[C@@H](CC(=O)O)C(=O)N[C@@H](Cc1ccccc1)C(=O)O` [Peptide 12b, Phe--Asp--Asp--Phe] (H-FDDF-OH), the Ki came to 55 ± 14 µM. Same read-out and setting: in the case of `N[C@@H](CC(=O)O)C(=O)N[C@@H](CC(=O)O)C(=O)N[C@@H](Cc1ccccc1)C(=O)O` [Peptide 12a, Asp--Asp--Phe] (H-Asp-Asp-Phe-OH) it was 43 ± 7 µM.

The target of another series is T1, HIV-1 protease. Description: HIV-1 protease hydrolysis of synthetic cleavage-site peptide substrates (RP-HPLC, Lineweaver-Burk). The series is classed as biochemical. Particulars: Gag cleavage sites. Here is the method: […] Reactions were terminated with 190 μl of a solution of 8M guanidine hydrochloride and 1% trifluroacetic acid (TFA) and subjected to reverse-phase high performance liquid chromotography ("RP-HPLC") on a C18 column. The substrate and cleavage products were separated with a linear gradient of 0 to 50% acetonitrile in water containing 0.05% TFA. The identity of the cleavage products was confirmed by electrospray mass spectroscopy. Peak areas were integrated using the Turbochrom 4 software (Perkin Elmer, San Jose, Calif.). Lineweaver-Burk analysis was used to determine kcat and Km.
As for RQAN*FLGK, the “kcat /Km” value was determined as 1600 M⁻¹ s⁻¹.

Consider SQNY*PIVQ, for which the “kcat /Km” value turned out to be 45000 M⁻¹ s⁻¹.

Consider ARVL*AEAM, for which the “kcat /Km” value came out at 90000 M⁻¹ s⁻¹.

Consider PGNF*LQSR, for which the “kcat /Km” value was 600 M⁻¹ s⁻¹. Same read-out and setting: in the case of ATIM*MQRG it was 74000 M⁻¹ s⁻¹.

The series is the same for the next values; noted with them: Pol cleavage sites.
On to RKIL*FLDG, for which the “kcat /Km” value amounted to 200000 M⁻¹ s⁻¹. The same measure, in the same setting: in the case of TLNF*PISP it was 24000 M⁻¹ s⁻¹. On the same count and under the same terms, with “ERQANFLRED [ERQAN*FLRED, Glu-Arg-Gln-Ala-Asn-Phe-Leu-Arg-Glu-Asp]” the figure was 0.019 M⁻¹ s⁻¹; with “DLAFLQGK [DLAF*LQGK, Asp-Leu-Ala-Phe-Leu-Gln-Gly-Lys]”, 1200 M⁻¹ s⁻¹; with AETF*YVDG, 10000 M⁻¹ s⁻¹. Same read-out and setting: in the case of SFNF*PQIT it was 7000 M⁻¹ s⁻¹.

The target of the next series is T1, HIV-1 protease. Description: biochemical. The conditions noted are these: 1M NaCl, 50 mM sodium formate, pH 4.0, 2.5 mM DTT, 25° C.
For the molecule `CC(C)C[C@H](NC(=O)[C@@H](N)CC(=O)O)C(=O)N[C@@H](C)C(=O)N[C@@H](Cc1ccccc1)C(=O)O` [Peptide 6, Asp--Leu--Ala--Phe] (H-DLAF-OH), the Ki was determined as 3260 ± 390 µM. Still for that read-out and setting: in the case of `N[C@@H](CCC(=O)O)C(=O)N[C@@H](CC(=O)O)C(=O)N[C@@H](Cc1ccccc1)C(=O)O` [Peptide 12, Glu--Asp--Phe] (H-Glu-Asp-Phe-OH) it was 410 ± 25 µM.

Another series relates to mature HIV-1 protease. Description: 50 mM sodium acetate, pH 5.0 or 100 mM sodium phosphate at pH 5.5 containing 1 mM DTT, 1 mM EDTA, 1M NaCl. Particulars: 37° C.
In the case of DLAFLQGK, the cleaved bond entry is “Phe-Leu”.

Regarding ERQANFLRED, the cleaved bond result was “Asn-Phe”.
